How the values were obtained:
Format in all cases: cell-based
Conditions in all cases: Flip-In 293 cells stably expressing eGFP-bromodomain fusion and mCherry; compound titrated, 5 h incubation; FIG. 1, 2A, 2B
BRD4BD1, BRD4BD2 = experiment: Degradation of eGFP-fused BRD4 bromodomains, eGFP/mCherry reporter flow cytometry
Protocol: (§1) BRD2BD1, BRD2BD2, BRD3BD1, BRD3BD2, BRD4BD1, and BRD4BD2 were subcloned into mammalian pcDNA5/FRT Vector (Ampicillin and Hygromycin B resistant) modified to contain MCS-eGFP-P2A-mCherry. Stable cell lines expressing eGFP-protein fusion and mCherry reporter were generated using Flip-In 293 system. Plasmid (0.3 μg) and pOG44 (4.7 μg) DNA were preincubated in 100 μL of Opti-MEM™ I (Gibco™, Life Technologies™) media containing 0.05 mg/ml Lipofectamine® 2000 (Invitrogen™) for 20 min and added to Flip-In 293 cells containing 1.9 ml of Dulbecco's Modified Eagle's medium (DMEM) (Gibco™, Life Technologies™) per well in a 6-well plate format (Falcon, 353046). […]
(§2) Cells were seeded at 30-50% confluency in either 24, 48 or 96 well plates (3524, 3548, 3596 respectively, Costar) a day before compound treatment. The inventive compound 3 was titrated and then was incubated with cells for 5 h following trypsinization and resuspension in DMEM, transferred into 96-well plates (353910, Falcon®) and analyzed by flow cytometer (Guava® easyCyte™ HT, Millipore™). Signal from at least 3000 events per well was acquired and the eGFP and mCherry florescence monitored. Data was analyzed using FlowJo® (FlowJo®, LCC). […] The eGFP protein abundance relative to mCherry was then quantified as a ten-fold amplified ratio for each individual cell using the formula: 10× eGFP/mCherry. […]

BRD2BD1, BRD2BD2 = experiment: Degradation of eGFP-fused BRD2 bromodomains, eGFP/mCherry reporter flow cytometry
Protocol: as §1, §2

BRD3BD1, BRD3BD2 = experiment: Degradation of eGFP-fused BRD3 bromodomains, eGFP/mCherry reporter flow cytometry
Protocol: as §1, §2

COC(=O)C[C@@H]1N=C(c2ccc(Cl)cc2)c2c(sc(C(=O)NCCCCCCCCNc3cccc(C(=O)NC4CCC(=O)NC4=O)n3)c2C)-n2c(C)nnc21 (stereo partly drawn) [compound 1, methyl 2-((6S)-4-(4-chlorophenyl)-2-((8-((6-((2,6-dioxopiperidin-3-yl)carbamoyl)pyridin-2-yl)amino)octyl)carbamoyl)-3,9-dimethyl-6H-thieno[3,2-f][1,2,4]triazolo[4,3-a][1,4]diazepin-6-yl)acetate]
degradation of stably expressed bromodomains of BRD4 (GFP/mCherry ratio) (BRD4BD1, BRD4BD2): able to efficiently degrade | degradation of stably expressed bromodomains of BRD2 (GFP/mCherry ratio) (BRD2BD1, BRD2BD2): able to efficiently degrade | degradation of stably expressed bromodomains of BRD3 (GFP/mCherry ratio) (BRD3BD1, BRD3BD2): able to efficiently degrade

COC(=O)C[C@@H]1N=C(c2ccc(Cl)cc2)c2c(sc(C(=O)NCCCCCNc3cccnc3C(=O)NC3CCC(=O)NC3=O)c2C)-n2c(C)nnc21 (stereo partly drawn) [compound 3, methyl 2-((6S)-4-(4-chlorophenyl)-2-((5-((2-((2,6-dioxopiperidin-3-yl)carbamoyl)pyridin-3-yl)amino)pentyl)carbamoyl)-3,9-dimethyl-6H-thieno[3,2-f][1,2,4]triazolo[4,3-a][1,4]diazepin-6-yl)acetate]
degradation of stably expressed bromodomains of BRD4 (GFP/mCherry ratio) (BRD4BD1, BRD4BD2): only the first bromodomain of BRD4 is degraded

Reference: patent US12060366B2, “Bispecific degraders” (DANA-FARBER CANCER INSTITUTE, INC., priority 2018, dated 2024)
